Test results published in publication PMC11013945, “Antiprotozoal Activity of Plants Used in the Management of Sleeping Sickness in Angola and Bioactivity-Guided Fractionation of Brasenia schreberi J.F.Gmel and Nymphaea lotus L. Active against T. b. rhodesiense” (Molecules, 2024).
In brackets after ≈: the same amount, converted by molar mass.

Key:
leishmania = test system: leishmania; parameters: method as in PMID 16643059; settings: cited from earlier work
T. cruzi = assay: In vitro growth inhibition of T. cruzi intracellular amastigotes grown in L6 rat myoblasts; type: cell-based, Trypanosoma cruzi; settings: Table 4, pure compounds; for IC50: Trypanosoma cruzi, Myoblast, mean of two independent experiments
Description: (§1) In vitro growth inhibitory activity of the extracts and pure compounds against T. cruzi (intracellular amastigote forms grown in L6 rat myoblasts), L. donovani (axenic amastigote forms in acidic medium or intracellular amastigotes in mouse primary macrophages), and P. falciparum (erythrocytic stages in culture) was determined as described previously. Testing against intracellular L. donovani was performed as follows: mouse peritoneal macrophages (4 × 104 in 100 µL RPMI 1640 medium with 10% heat-inactivated FBS) in 96-well plates were infected with amastigotes (2 × 105 in 100 µL medium). After 24 h, the medium was exchanged twice to remove free amastigotes. Test compounds were added, and the plates incubated for 96 h at 37 °C under 5% CO2. Then, the medium was removed, the cells were fixed with 50 µL 4% formaldehyde, and stained with 5 µM DRAQ5. Nine images were taken per well on a ImageXpress XLS (MD) microscope (Molecular Devices, San Jose, CA, USA) using a 20× air objective (635 nm excitation: 690/50 emission) and analyzed with a script developed on Meta Xpress (MD). Cytotoxicity against L6 cells was assessed by using a similar protocol as outlined for IC50 determination with T. b. rhodesiense, except that rat skeletal myoblasts (L6 cells) were used. The medium was RPMI 1640 medium supplemented with 1% L-glutamine (200 mM) and 10% fetal bovine serum. Reference compounds were melarsoprol for T. b. rhodesiense, benznidazole for T. cruzi, miltefosine for L. donovani, chloroquine and artesunate for P. falciparum, and podophyllotoxin for L6 cells.

L6 cells = assay: Cytotoxicity against L6 cells; type: cell-based; settings: Rattus norvegicus, Table 4, pure compounds
Description: as §1

L. donovani = assay: In vitro growth inhibition of L. donovani axenic amastigotes; type: cell-based, Leishmania donovani; settings: Table 4, pure compounds; for IC50: Leishmania donovani, axenic amastigote
Description: as §1

[1] = test system: T. b. rhodesiense STIB 900; assay: IC50 determination against T. b. rhodesiense, serial dilutions, Alamar blue; type: cell-based, Trypanosoma brucei rhodesiense; settings: Table 4, pure compounds; for IC50: Trypanosoma brucei
P. falciparum [2] = assay: In vitro growth inhibition of P. falciparum erythrocytic stages; type: cell-based, Plasmodium falciparum; settings: Table 4, pure compounds; for IC50: Plasmodium falciparum
Description: as §1

[3] = test system: Trypanosoma brucei rhodesiense STIB900; assay: Growth inhibition (GI) of T. b. rhodesiense bloodstream forms at a single concentration, Alamar blue; type: cell-based; settings: read-out: Growth inhibition (%)
Description: A total of 122 extracts were prepared from different parts of the nine plant species. Each plant part was extracted consecutively with hexane, dichloromethane, ethanol, methanol, and water. The extracts were tested for their in vitro growth inhibition (GI) activity against bloodstream forms of Trypanosoma brucei rhodesiense STIB900, our reference strain for drug testing against African trypanosomes at a concentration of 20 µg/mL. […] A detailed description of the plant species, the parts extracted, solvent, extraction yield, and percentage of growth inhibition (GI%) is given in Supplementary Table S1.
Growth inhibition (GI) activity against T. b. rhodesiense STIB 900 was determined as follows: in a 96-well microtiter plate, 50 µL of HMI-9 medium supplemented with 15% heat-inactivated horse serum were added to each well. A total of 10 µL of the plant extract stock solution was added to each well. Then, 50 µL of bloodstream-form trypanosomes were added, adjusted with a cell counter (CASY, Schärfe System, Germany) to 4 × 10^4 cells/mL. […] Then, the plate was read with a Spectramax Gemini XS microplate fluorometer (Molecular Devices Corporation, Sunnyvale, CA, USA) using an excitation wavelength of 530 nm and an emission wavelength of 590 nm. Fluorescence was expressed as percentage of the untreated control. […]

[4] = test system: intracellular L. donovani; assay: Intramacrophage assay, intracellular L. donovani amastigotes in mouse peritoneal macrophages; type: cell-based; settings: Leishmania donovani, Macrophage
Description: as §1, with “Reference compounds were melarsoprol for T. b. rhodesiense, benznidazole for T. cruzi, miltefosine for L. donovani, chloroquine and artesunate for P. falciparum, and podophyllotoxin for L6 cells.” left out

P. falciparum [5] = test system: P. falciparum; parameters: method as in PMID 29333044; settings: isolated from Alectryon serratus leaves; cited from earlier work
[6] = test system: sn-glycerol-3-phosphate oxidase system of T. b. brucei; settings: in vitro; cited from earlier work
epimastigote T. cruzi = test system: epimastigote T. cruzi; parameters: method as in PMID 27347554; settings: read-out: IC50 against epimastigote T. cruzi; cited from earlier work
[7] = mean of two independent experiments

Compound: C=CCCC/C=C\C/C=C\CCCCCCCc1cc(O)cc(O)c1 [5-heptadeca-8′Z,11′Z,16-trienylresorcinol]
- IC50 against leishmania (leishmania): 3.6 µg/mL (≈ 10.5 µM)

Compound: O=c1c(O)c(-c2ccc(O)c(O)c2)oc2c(O)c(O[C@@H]3O[C@H](CO)[C@@H](O)[C@H](O)[C@H]3O)cc(O)c12 [Gossypetin-7-O-β-glucopyranoside (6), gossypetin-7-O-β-glucopyranoside]
- T. cruzi SI (T. cruzi): 0.8
- IC50 (T. cruzi): 12 µg/mL (≈ 25 µM)
- IC50 (L6 cells): 8.9 µg/mL (≈ 18.5 µM)
- IC50 (L. donovani): 53 µg/mL (≈ 110 µM)
- L. donovani SI (L. donovani): 0.2
- T. b. rhodesiense SI [1]: 1.6
- IC50 [1, 7]: 5.5 µg/mL (≈ 11.4 µM)

Compound: O=C(OC[C@@H]1O[C@H](OC(=O)c2cc(O)c(O)c(O)c2)[C@@H](OC(=O)c2cc(O)c(O)c(O)c2)[C@H](OC(=O)c2cc(O)c(O)c(O)c2)[C@H]1OC(=O)c1cc(O)c(O)c(O)c1)c1cc(O)c(O)c(O)c1 [Pentagalloyl-β-glucopyranoside (5), 1,2,3,4,6 pentagalloyl-β-glucopyranoside]
- T. cruzi SI (T. cruzi): 0.5
- IC50 (T. cruzi): 44 µg/mL (≈ 46.8 µM)
- IC50 (L6 cells): 21 µg/mL (≈ 22.3 µM)
- IC50 (L. donovani): 15 µg/mL (≈ 15.9 µM)
- L. donovani SI (L. donovani): 1.4
- T. b. rhodesiense SI [1]: 1.0
- IC50 [1, 7]: 20 µg/mL (≈ 21.3 µM)
- IC50 (P. falciparum [2]): 6.7 µg/mL (≈ 7.12 µM)
- P. falciparum SI (P. falciparum [2]): 3.1

Compound: Nc1nc(N)nc(Nc2ccc([As]3SCC(CO)S3)cc2)n1 (stereo not drawn) [melarsoprol]
- inhibition at 0.072 µg/mL [3]: 98.4%

Compound: CC/C=C\C/C=C\C/C=C\CCCCCCCc1cc(O)cc(O)c1 [Resorcinol-alkyl (8), 5-[(8Z,11Z,14Z)-heptadeca-8,11,14-trienyl] resorcinol]
- IC50 [4]: > 11 µg/mL
- T. cruzi SI (T. cruzi): 1.4
- IC50 (T. cruzi): 9.1 µg/mL (≈ 26.6 µM)
- IC50 (L6 cells): 13 µg/mL (≈ 38 µM)
- IC50 (L. donovani): 2.5 µg/mL (≈ 7.3 µM)
- L. donovani SI (L. donovani): 5.2
- T. b. rhodesiense SI [1]: 2.5
- IC50 [1, 7]: 5.3 µg/mL (≈ 15.5 µM)

Compound: COC(=O)c1cc(O)c(O)c(O)c1 [Methyl gallate (2), methyl gallate]
- IC50 against P. falciparum (P. falciparum [5]): 0.0025 µg/mL (≈ 0.0136 µM)
- T. cruzi SI (T. cruzi): 1.0
- IC50 (T. cruzi): 16 µg/mL (≈ 86.9 µM)
- inhibition of sn-glycerol-3-phosphate oxidase system [6]: inhibited
- IC50 (L6 cells): 16 µg/mL (≈ 86.9 µM)
- IC50 (L. donovani): 8.5 µg/mL (≈ 46.2 µM)
- L. donovani SI (L. donovani): 1.9
- T. b. rhodesiense SI [1]: 15
- IC50 [1, 7]: 1.1 µg/mL (≈ 5.97 µM)
- IC50 (P. falciparum [2]): 3 µg/mL (≈ 16.3 µM)
- P. falciparum IC50 (P. falciparum [2]): 2.1 µg/mL
- P. falciparum SI (P. falciparum [2]): 7.8
- IC50 (epimastigote T. cruzi): > 100 µM

Compound: CCOC(=O)c1cc(O)c(O)c(O)c1 [Ethyl gallate (4), ethyl gallate]
- T. cruzi SI (T. cruzi): 0.9
- IC50 (T. cruzi): 16 µg/mL (≈ 80.7 µM)
- IC50 (L6 cells): 15 µg/mL (≈ 75.7 µM)
- IC50 (L. donovani): 6.8 µg/mL (≈ 34.3 µM)
- L. donovani SI (L. donovani): 2.2
- T. b. rhodesiense SI [1]: 25
- T. b. rhodesiense IC50 [1, 7]: 0.6 µg/mL
- IC50 [1, 7]: 0.5 µg/mL (≈ 2.52 µM)
- IC50 (P. falciparum [2]): 2.1 µg/mL (≈ 10.6 µM)
- P. falciparum IC50 (P. falciparum [2]): 3.0 µg/mL
- P. falciparum SI (P. falciparum [2]): 4.9
- IC50 (epimastigote T. cruzi): > 100 µM

Compound: O=C(O)c1cc(O)c(O)c(O)c1 [Gallic acid (1), gallic acid]
- IC50 against P. falciparum (P. falciparum [5]): 0.0013 µg/mL (≈ 0.00764 µM)
- T. cruzi SI (T. cruzi): 0.2
- IC50 (T. cruzi): 66 µg/mL (≈ 388 µM)
- inhibition of sn-glycerol-3-phosphate oxidase system [6]: inhibited
- IC50 (L6 cells): 16 µg/mL (≈ 94.1 µM)
- IC50 (L. donovani): 56 µg/mL (≈ 329 µM)
- L. donovani SI (L. donovani): 0.3
- T. b. rhodesiense SI [1]: 34
- IC50 [1, 7]: 0.5 µg/mL (≈ 2.94 µM)
- IC50 (P. falciparum [2]): > 10 µg/mL
- IC50 (epimastigote T. cruzi): > 100 µM

Compound: O=c1cc(-c2ccc(O)c(O)c2)oc2c(O)c(O[C@@H]3O[C@H](CO)[C@@H](O)[C@H](O)[C@H]3O)cc(O)c12 [Hypolaetin-7-O-glucoside (7), hypolaetin-7-O-glucoside]
- T. cruzi SI (T. cruzi): 0.4
- IC50 (T. cruzi): 49 µg/mL (≈ 106 µM)
- IC50 (L6 cells): 19 µg/mL (≈ 40.9 µM)
- IC50 (L. donovani): 52 µg/mL (≈ 112 µM)
- L. donovani SI (L. donovani): 0.4
- T. b. rhodesiense SI [1]: 3.2
- IC50 [1, 7]: 5.7 µg/mL (≈ 12.3 µM)
